Publication PMC10099431 (ACS Omega, 2023)
Like-named read-outs stand apart in the source and are kept apart here.

Tests used:
[1] = Equilibrium mole fraction solubility of RST in {PEG400; type: physicochemical
[2] = type: physicochemical; settings: 298.15 K; for Gibbs energy of transfer of RST from neat water to the mixture / ΔsolnG°, standard Gibbs free energy of dissolution: 0.1 MPa
[3] = type: physicochemical; settings: for 100 δx1,3 (preferential solvation parameter of RST by PEG400) / D (derivative of the Gibbs energy of transfer) / G1,3 (Kirkwood–Buff integral, PEG400–RST) / G2,3 (Kirkwood–Buff integral, water–RST) / Vcor (correlation volume): 298.15 K, 0.1 MPa

solubility at 3 days ([1]; PEG400): 6500 µg/mL | solubility at 3 days ([1]; PEG400 + water cosolvent mixture): 4140 µg/mL | Gibbs energy of transfer of RST from neat water to {PEG400 + water} mixtures, range ([2]; all mixtures): −2.39 to −14.24 kJ·mol^–1 | Gibbs energy of transfer of RST from neat water to the mixture ([2]; w1 = 0.00 (neat water)): 0.00 kJ·mol^–1 | ΔsolnG°, standard Gibbs free energy of dissolution ([2]; w1 = 0.00 (neat water)): 32.36 kJ·mol^–1 | Gibbs energy of transfer of RST from neat water to the mixture ([2]; w1 = 0.10 PEG400): –2.39 kJ·mol^–1 | ΔsolnG°, standard Gibbs free energy of dissolution ([2]; w1 = 0.10 PEG400): 29.97 kJ·mol^–1 | Gibbs energy of transfer of RST from neat water to the mixture ([2]; w1 = 0.20 PEG400): –3.53 kJ·mol^–1 | ΔsolnG°, standard Gibbs free energy of dissolution ([2]; w1 = 0.20 PEG400): 28.83 kJ·mol^–1 | Gibbs energy of transfer of RST from neat water to the mixture ([2]; w1 = 0.30 PEG400): –5.49 kJ·mol^–1 | ΔsolnG°, standard Gibbs free energy of dissolution ([2]; w1 = 0.30 PEG400): 26.86 kJ·mol^–1 | Gibbs energy of transfer of RST from neat water to the mixture ([2]; w1 = 0.40 PEG400): –7.93 kJ·mol^–1 | ΔsolnG°, standard Gibbs free energy of dissolution ([2]; w1 = 0.40 PEG400): 24.42 kJ·mol^–1 | Gibbs energy of transfer of RST from neat water to the mixture ([2]; w1 = 0.50 PEG400): –8.49 kJ·mol^–1 | ΔsolnG°, standard Gibbs free energy of dissolution ([2]; w1 = 0.50 PEG400): 23.87 kJ·mol^–1 | Gibbs energy of transfer of RST from neat water to the mixture ([2]; w1 = 0.60 PEG400): –8.94 kJ·mol^–1 | ΔsolnG°, standard Gibbs free energy of dissolution ([2]; w1 = 0.60 PEG400): 23.42 kJ·mol^–1 | Gibbs energy of transfer of RST from neat water to the mixture ([2]; w1 = 0.70 PEG400): –9.46 kJ·mol^–1 | ΔsolnG°, standard Gibbs free energy of dissolution ([2]; w1 = 0.70 PEG400): 22.90 kJ·mol^–1 | Gibbs energy of transfer of RST from neat water to the mixture ([2]; w1 = 0.80 PEG400): –10.34 kJ·mol^–1 | ΔsolnG°, standard Gibbs free energy of dissolution ([2]; w1 = 0.80 PEG400): 22.02 kJ·mol^–1 | ΔsolnG°, standard Gibbs free energy of dissolution ([2]; w1 = 0.90 PEG400): 21.15 kJ·mol^–1 | Gibbs energy of transfer of RST from neat water to the mixture ([2]; w1 = 1.00 (neat PEG400)): –14.24 kJ·mol^–1 | ΔsolnG°, standard Gibbs free energy of dissolution ([2]; w1 = 1.00 (neat PEG400)): 18.12 kJ·mol^–1 | molecular radius r3 ([3]; calculated from molar volume): 0.5 nm | 100 δx1,3 (preferential solvation parameter of RST by PEG400) ([3]; x1 = 0.00): 0.00 | D (derivative of the Gibbs energy of transfer) ([3]; x1 = 0.00): –328.34 kJ·mol^–1 | G1,3 (Kirkwood–Buff integral, PEG400–RST) ([3]; x1 = 0.00): –2707.6 cm^3·mol^–1 | G2,3 (Kirkwood–Buff integral, water–RST) ([3]; x1 = 0.00): –313.7 cm^3·mol^–1 | Vcor (correlation volume) ([3]; x1 = 0.00): 1163 cm^3·mol^–1 | 100 δx1,3 (preferential solvation parameter of RST by PEG400) ([3]; x1 = 0.05): 0.01 | D (derivative of the Gibbs energy of transfer) ([3]; x1 = 0.05): –31.52 kJ·mol^–1 | G1,3 (Kirkwood–Buff integral, PEG400–RST) ([3]; x1 = 0.05): –488.9 cm^3·mol^–1 | G2,3 (Kirkwood–Buff integral, water–RST) ([3]; x1 = 0.05): –491.2 cm^3·mol^–1 | Vcor (correlation volume) ([3]; x1 = 0.05): 1589 cm^3·mol^–1 | 100 δx1,3 (preferential solvation parameter of RST by PEG400) ([3]; x1 = 0.10): 0.31 | D (derivative of the Gibbs energy of transfer) ([3]; x1 = 0.10): –9.90 kJ·mol^–1 | G1,3 (Kirkwood–Buff integral, PEG400–RST) ([3]; x1 = 0.10): –358.4 cm^3·mol^–1 | G2,3 (Kirkwood–Buff integral, water–RST) ([3]; x1 = 0.10): –412.8 cm^3·mol^–1 | Vcor (correlation volume) ([3]; x1 = 0.10): 1980 cm^3·mol^–1 | 100 δx1,3 (preferential solvation parameter of RST by PEG400) ([3]; x1 = 0.15): 0.71 | D (derivative of the Gibbs energy of transfer) ([3]; x1 = 0.15): –10.32 kJ·mol^–1 | G1,3 (Kirkwood–Buff integral, PEG400–RST) ([3]; x1 = 0.15): –353.1 cm^3·mol^–1 | G2,3 (Kirkwood–Buff integral, water–RST) ([3]; x1 = 0.15): –458.2 cm^3·mol^–1 | Vcor (correlation volume) ([3]; x1 = 0.15): 2343 cm^3·mol^–1 | 100 δx1,3 (preferential solvation parameter of RST by PEG400) ([3]; x1 = 0.20): 1.05 | D (derivative of the Gibbs energy of transfer) ([3]; x1 = 0.20): –9.89 kJ·mol^–1 | G1,3 (Kirkwood–Buff integral, PEG400–RST) ([3]; x1 = 0.20): –346.4 cm^3·mol^–1 | G2,3 (Kirkwood–Buff integral, water–RST) ([3]; x1 = 0.20): –492.0 cm^3·mol^–1 | Vcor (correlation volume) ([3]; x1 = 0.20): 2680 cm^3·mol^–1 | 100 δx1,3 (preferential solvation parameter of RST by PEG400) ([3]; x1 = 0.25): 1.29 | D (derivative of the Gibbs energy of transfer) ([3]; x1 = 0.25): –8.96 kJ·mol^–1 | G1,3 (Kirkwood–Buff integral, PEG400–RST) ([3]; x1 = 0.25): –339.9 cm^3·mol^–1 | G2,3 (Kirkwood–Buff integral, water–RST) ([3]; x1 = 0.25): –513.6 cm^3·mol^–1 | Vcor (correlation volume) ([3]; x1 = 0.25): 2997 cm^3·mol^–1 | 100 δx1,3 (preferential solvation parameter of RST by PEG400) ([3]; x1 = 0.30): 1.45 | D (derivative of the Gibbs energy of transfer) ([3]; x1 = 0.30): –7.95 kJ·mol^–1 | G1,3 (Kirkwood–Buff integral, PEG400–RST) ([3]; x1 = 0.30): –334.6 cm^3·mol^–1 | G2,3 (Kirkwood–Buff integral, water–RST) ([3]; x1 = 0.30): –529.0 cm^3·mol^–1 | Vcor (correlation volume) ([3]; x1 = 0.30): 3297 cm^3·mol^–1 | 100 δx1,3 (preferential solvation parameter of RST by PEG400) ([3]; x1 = 0.35): 1.54 | D (derivative of the Gibbs energy of transfer) ([3]; x1 = 0.35): –7.01 kJ·mol^–1 | G1,3 (Kirkwood–Buff integral, PEG400–RST) ([3]; x1 = 0.35): –330.5 cm^3·mol^–1 | G2,3 (Kirkwood–Buff integral, water–RST) ([3]; x1 = 0.35): –542.0 cm^3·mol^–1 | Vcor (correlation volume) ([3]; x1 = 0.35): 3585 cm^3·mol^–1 | 100 δx1,3 (preferential solvation parameter of RST by PEG400) ([3]; x1 = 0.40): 1.60 | D (derivative of the Gibbs energy of transfer) ([3]; x1 = 0.40): –6.19 kJ·mol^–1 | G1,3 (Kirkwood–Buff integral, PEG400–RST) ([3]; x1 = 0.40): –327.6 cm^3·mol^–1 | G2,3 (Kirkwood–Buff integral, water–RST) ([3]; x1 = 0.40): –554.7 cm^3·mol^–1 | Vcor (correlation volume) ([3]; x1 = 0.40): 3863 cm^3·mol^–1
SMILES: CC(C)c1nc(N(C)S(C)(=O)=O)nc(-c2ccc(F)cc2)c1/C=C/[C@@H](O)C[C@@H](O)CC(=O)[O-].CC(C)c1nc(N(C)S(C)(=O)=O)nc(-c2ccc(F)cc2)c1/C=C/[C@@H](O)C[C@@H](O)CC(=O)[O-].[Ca+2] [RST, (E)-7-[4-(4-fluorophenyl)-6-isopropyl-2-[methyl(methylsulfonyl)amino]pyrimidin-5-yl]-(3R,5S)-3,5-dihydroxyhept-6-enoic acid, calcium salt (2:1)]
